Experimental data published in US10351522B2, “Sulfonamide derivative and pharmaceutically acceptable acid addition salt thereof” (UNIVERSITY OF TSUKUBA, priority 2015, dated 2019).

Key:
human OX1R = molecular target: T1, human OX1R (Homo sapiens, UniProt O43613); assay: Agonist activity against OX1R: intracellular calcium (Fura-2AM, FDSS7000) in CHOOX1R cells; type: cell-based; settings: relative to orexin-A as full agonist (100%), read-out: Response (%) OX1R
T1 construct: expressed in transfected cells; host or cells: CHO (Chinese hamster ovary) cells, line CHOOX1R, co-expressing NFAT-luciferase
T1 sequence (O43613 1-425): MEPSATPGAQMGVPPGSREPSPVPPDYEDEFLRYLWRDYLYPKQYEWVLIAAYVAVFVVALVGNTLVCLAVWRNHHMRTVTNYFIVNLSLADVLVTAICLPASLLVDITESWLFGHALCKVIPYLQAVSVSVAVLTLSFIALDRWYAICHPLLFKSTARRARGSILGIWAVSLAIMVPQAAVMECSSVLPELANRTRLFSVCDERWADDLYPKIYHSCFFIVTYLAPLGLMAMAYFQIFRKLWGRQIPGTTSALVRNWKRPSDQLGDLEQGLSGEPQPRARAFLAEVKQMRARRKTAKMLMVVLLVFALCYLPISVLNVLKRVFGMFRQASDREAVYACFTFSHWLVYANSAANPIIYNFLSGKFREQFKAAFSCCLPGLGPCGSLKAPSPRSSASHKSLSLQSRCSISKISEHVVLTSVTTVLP
How it was run: (§1)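 CHO cells stably expressing human OX1R or OX2R (plus NFAT-luciferase) were loaded with 5 μM Fura-2AM for 60 min, then given compound at 10^−7 to 10^−5 M final (1% DMSO). Calcium change read as 340/380 nm excitation fluorescence ratio; response expressed as % of orexin-A maximal activity at 10, 1.0 and 0.1 μM.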

human OX2R = molecular target: T2, human OX2R (Homo sapiens, UniProt O43614); assay: Agonist activity against OX2R: intracellular calcium (Fura-2AM, FDSS7000) in CHOOX2R cells; type: cell-based; settings: relative to orexin-A as full agonist (100%)
T2 construct: expressed in transfected cells; host or cells: CHO (Chinese hamster ovary) cells, line CHOOX2R, co-expressing NFAT-luciferase
T2 sequence (O43614 1-444): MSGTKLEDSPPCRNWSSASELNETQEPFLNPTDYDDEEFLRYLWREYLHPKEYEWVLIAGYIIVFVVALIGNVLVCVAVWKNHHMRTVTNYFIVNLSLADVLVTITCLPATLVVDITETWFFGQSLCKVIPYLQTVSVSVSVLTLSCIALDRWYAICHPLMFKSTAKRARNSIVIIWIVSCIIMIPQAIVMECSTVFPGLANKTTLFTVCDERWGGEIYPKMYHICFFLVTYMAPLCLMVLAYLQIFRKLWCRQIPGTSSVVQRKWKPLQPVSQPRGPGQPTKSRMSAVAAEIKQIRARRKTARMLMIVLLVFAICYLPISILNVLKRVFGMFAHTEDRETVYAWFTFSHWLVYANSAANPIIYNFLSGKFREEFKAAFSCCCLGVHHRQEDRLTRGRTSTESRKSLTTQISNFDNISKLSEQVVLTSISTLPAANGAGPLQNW
How it was run: as §1

C57BL/6 wild-type mouse = assay: Awakening effect on wild-type mouse by light period intraventricular administration (EEG/EMG hypnogram); type: in vivo; settings: 10 nmol intraventricular at ZT6 (light period), hypnogram for 3 hr
Source text: Awakening Effect on Wild-Type Mouse by Light Period Intraventricular Administration of the Compound of the Present Invention
As the experiment animal, C57BL/6 lineage wild-type mouse (male) was used. The mice before and after 9-week-old (±1 week) underwent surgery for embedding electroencephalogram electrodes into the skull (Bregma: X=1.5; Y=0.6, Lambda: X=1.5; Y=0) and inserting electromyogram electrodes into the trapezius muscle under isoflurane anesthesia. The mice for intraventricular administration also underwent cannula embedding into lateral cerebral ventricle (Bregma: X=−0.9; Y=−0.3). From two weeks thereafter, the administration and electroencephalogram measurement were started. The experiment was conducted under a light-dark cycle environment in which the light period started at 9 (ZT0) and the dark period started at 21 (ZT12).
The test compound (compound of Example 40) (10 nmol; dissolved in 5% chromophore-containing saline) (5 μl) was injected at ZT6 into the lateral cerebral ventricle of wild-type mice under isoflurane anesthesia through cannula by using a microsyringe pump at a flow rate of 0.5 μl/min, and electroencephalogram and electromyogram was measured thereafter. The administration was started with 5% chromophore-containing saline (Vehicle) as a control, and then the test compound was administered. […]

For `COc1ccc(-c2cccc(C(=O)N(C)C)c2)cc1S(=O)(=O)Nc1cccc(NC(=O)Nc2cccc(N(C)C)c2)c1` [Example 40, 3′-(N-(3-(3-(3-(dimethylamino)phenyl)ureido)phenyl)sulfamoyl)-4′-methoxy-N,N-dimethyl-[1,1′-biphenyl]-3-carboxamide], the Emax at 0.1 µM (human OX1R; 0.1 μM test compound) was less than 5%, the Emax at 1 µM (human OX1R; 1.0 μM test compound) was less than 5% and the Emax at 10 µM (human OX1R; 10 μM test compound) was less than 5%. The “Response (%) OX2R” value (human OX2R; 0.1 μM test compound) was 77%, the “Response (%) OX2R” value (human OX2R; 1.0 μM test compound) was 60% and the “Response (%) OX2R” value (human OX2R; 10 μM test compound) was 52%. For the same compound, the “conscious time compared to Vehicle administration” value (C57BL/6 wild-type mouse) was “increased”.
